Results reported in patent US7112585B2, “Pyrimidine derivatives as corticotropin releasing factor inhibitors” (Bristol-Myers Squibb Company, priority 2003, dated 2006).

Columns and labels:
[1] = molecular target: T1, cloned human CRF-R1 receptors (Homo sapiens, UniProt P34998); test: CRF-R1 Receptor Binding Assay (inhibition of 125I-ovine-CRF binding to cell membranes); parameters: key to activity: a: Ki≦100 nM; b: 100 nM<Ki≦500 nM; c: 500 nM<Ki≦5,000 nM; activity reported in percent inhibition at 10 μM; conditions: CRF assays; class d = activity only as percent inhibition at 10 μM (value not given)
T1 construct: the coding region was amplifies by PCR from start to stop codons; expressed in transfected cells; host or cells: 293EBNA (HEK 293 EBNA-1) cells, episomal vector phchCRFR, hygromycin-selected pool; membranes
T1 sequence (P34998 24-415): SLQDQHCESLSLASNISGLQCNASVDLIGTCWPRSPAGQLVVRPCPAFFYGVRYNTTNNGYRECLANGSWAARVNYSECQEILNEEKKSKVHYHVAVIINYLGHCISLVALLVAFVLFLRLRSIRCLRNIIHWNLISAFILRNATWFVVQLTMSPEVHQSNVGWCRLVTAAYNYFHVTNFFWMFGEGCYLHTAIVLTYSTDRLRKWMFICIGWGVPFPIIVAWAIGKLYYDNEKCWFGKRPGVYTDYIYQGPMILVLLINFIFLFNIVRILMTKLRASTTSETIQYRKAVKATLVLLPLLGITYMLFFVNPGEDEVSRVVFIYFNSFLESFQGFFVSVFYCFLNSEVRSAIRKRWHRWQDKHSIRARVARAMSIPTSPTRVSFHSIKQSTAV
Description: CRF-R1 Receptor Binding Assay for the Evaluation of Biological Activity
The following is a description of the isolation of cell membranes containing cloned human CRF-R1 receptors for use in a standard binding assay as well as a description of the assay itself.
Messenger RNA was isolated from human hippocampus. The mRNA was isolated from human hippocampus. The mRNA was reverse transcribed using oligo (dt) 12–18 and the coding region was amplifies by PCR from start to stop codons. The resulting PCR fragment was cloned into the EcORV site of pGEMV, from whence the insert was reclaimed using XhoI+XbaI and cloned into the XhoI+XbaI sites of vector pm3as (which contains a CMV promoter, the SV′t′ splice and early poly A signals, an Eptein-Barr viral origin of replication, and a hygromycin selectable marker). The resulting expression vector, called phchCRFR was transfected in 293EBNA cells and cells retaining the episome were selected in the presence of […] hygromycin. Cells surviving 4 weeks of selection in hygromycin were pooled, adapted to growth in suspension and used to generate membranes for the binding assay described below. Individual aliquots containing approximately 1×10^8 of the suspended cells were then centrifuged to form a pellet and frozen. For the binding assay a frozen pellet described above containing 293EBNA cells transfected with hCRFR1 receptors is homogenized in 10 mL of ice cold tissue buffer (50 mM HEPES buffer pH 7.0, containing 10 MM MgCl2, 2 mM EGTA, 1 μg/mL apotinin, 1 μg/mL leupeptin and 1 μg/mL pepstatin). The homoginate is centrifuged at 40,000×g for 12 min and the resulting pellet rehomogenized in 10 mL of tissue buffer. After another centrifugation at 40,000×g for 12 min, the pellet is resuspended to a protein concentration of 360 μg/mL to be used in the assay.
Binding assays are performed in 96 well plates; each well having a 300 μL capacity. To each well is added 50 μL of test drug dilutions (final concentration of drugs range from 10^−10–10^−5 M), 100 μL of ^125I-ovine-CRF (^125I-o-CRF) (final concentration 150 pM) and 150 μL of the cell homoginate described above. Plates are then allowed to incubate at room temperature for 2 hours before filtering the incubate over GF/F filters (presoaked with 0.3% polyethyleneimine) using an appropriate cell harvester. Filters are rinsed 2 times with ice cold assay buffer before removing individual filters and assessing them for radioactivity on a gamma counter.
Curves of the inhibition of ^125I-o-CRF binding to cell membranes at various dilutions of test drug are analyzed by the iterative curve fitting program LIGAND [P. J. Munson and D. Rodbard, Anal. Biochem., 107:220 (1980), which provides Ki values for inhibition which are then used to assess biological activity. […]
Messenger RNA was isolated from human hippocampus. The mRNA was isolated from human hippocampus. The mRNA was reverse transcribed using oligo (dt) 12–18 and the coding region was amplifies by PCR from start to stop codons. The resulting PCR fragment was cloned into the EcORV site of pGEMV, from whence the insert was reclaimed using XhoI+XbaI and cloned into the XhoI+XbaI sites of vector pm3as (which contains a CMV promoter, the SV′t′ splice and early poly A signals, an Eptein-Barr viral origin of replication, and a hygromycin selectable marker). The resulting expression vector, called phchCRFR was transfected in 293EBNA cells and cells retaining the episome were selected in the presence of […] hygromycin. Cells surviving 4 weeks of selection in hygromycin were pooled, adapted to growth in suspension and used to generate membranes for the binding assay described below. […]
A frozen pellet described above containing 293EBNA cells transfected with hCRFR1 receptors or the rat frontal cortex tissue dissected from frozen rat brains was prepared as the source of membranes expressing CRF1 receptors used in binding assays. […]

| Ki [1] [nM] | melting point [°C] | activity [1] | Compound |
| --- | --- | --- | --- |
| 100 to 500 | 153 to 155 |  | COc1ccc(S(=O)(=O)c2cnc(C)nc2Nc2c(C)cc(C)cc2C)cc1 [Example 1, [5-(4-Methoxybenzenesulfonyl)-2-methylpyrimidin-4-yl]-(2,4,6-trimethylphenyl)-amine] |
| 500 to 5000 | 246 to 248 |  | Cc1cc(C)c(Nc2nc(C)ncc2S(=O)(=O)c2ccc(O)cc2)c(C)c1 [Example 2, 4-[2-Methyl-4-(2,4,6-trimethylphenylamino)-pyrimidine-5-sulfonyl]-phenol] |
| 500 to 5000 | 142 to 144 |  | CC(=O)Oc1ccc(S(=O)(=O)c2cnc(C)nc2Nc2c(C)cc(C)cc2C)cc1 [Example 3, Acetic acid 4-[2-methyl-4-(2,4,6-trimethylphenylamino)-pyrimidine-5-sulfonyl]-phenyl ester] |
| ≤ 100 | 166 to 168 |  | Cc1cc(C)c(Nc2nc(C)ncc2S(=O)(=O)c2ccc(OCc3ccccc3)cc2)c(C)c1 [Example 4, [5-(4-Benzyloxybenzenesulfonyl)-2-methylpyrimidin-4-yl]-(2,4,6-trimethylphenyl)-amine] |
| 100 to 500 | 110 to 114 |  | COc1ccc(Nc2nc(C)ncc2S(=O)(=O)c2ccc(OCc3ccccc3)cc2)c(C)c1 [Example 5, [5-(4-Benzyloxybenzenesulfonyl)-2-methylpyrimidin-4-yl]-(4-methoxy-2-methylphenyl)-amine] |
|  | 160 to 165 | d | COc1ccc(Nc2nc(C)ncc2S(=O)(=O)c2ccc(OCc3ccccc3)cc2)c(C)n1 [Example 6, [5-(4-Benzyloxybenzenesulfonyl)-2-methylpyrimidin-4-yl]-(6-methoxy-2-methylpyridin-3-yl)-amine] |
| 100 to 500 | 112 to 115 |  | Cc1cc(C)c(Nc2nc(C)ncc2S(=O)(=O)c2cccc(OCc3ccccc3)c2)c(C)c1 [Example 7, [5-(3-Benzyloxybenzenesulfonyl)-2-methylpyrimidin-4-yl]-(2,4,6-trimethylphenyl)-amine] |
|  |  | d | COc1ncc(S(=O)(=O)c2cccc(OCc3ccccc3)c2)c(Nc2c(C)cc(C)cc2C)n1 [Example 8, [5-(3-Benzyloxybenzenesulfonyl)-2-methoxypyrimidin-4-yl]-(2,4,6-trimethylphenyl)-amine] |
| 500 to 5000 | 52 to 58 |  | Cc1cc(C)c(Nc2nc(N(C)C)ncc2S(=O)(=O)c2cccc(OCc3ccccc3)c2)c(C)c1 [Example 9, 5-(3-Benzyloxybenzenesulfonyl)-N^2,N^2-dimethyl-N^4-(2,4,6-trimethylphenyl)-pyrimidine-2,4-diamine] |
| ≤ 100 | 200 to 202 |  | COc1ccccc1COc1ccc(S(=O)(=O)c2cnc(C)nc2Nc2c(C)cc(C)cc2C)cc1 [Example 10, {5-[4-(2-Methoxybenzyloxy)-benzenesulfonyl]-2-methylpyrimidin-4-yl}-(2,4,6-trimethylphenyl)-amine] |
| ≤ 100 |  |  | COc1cc(COc2ccc(S(=O)(=O)c3cnc(C)nc3Nc3c(C)cc(C)cc3C)cc2)cc(OC)c1 [Example 11, {5-[4-(3,5-Dimethoxybenzyloxy)-benzenesulfonyl]-2-methylpyrimidin-4-yl}-(2,4,6-trimethylphenyl)-amine] |
|  |  | d | COc1ccc(Nc2nc(C)ncc2S(=O)(=O)c2ccc(OCc3ccccc3)cc2)c(OC)c1 [Example 12, [5-(4-Benzyloxybenzenesulfonyl)-2-methylpyrimidin-4-yl]-(2,4-dimethoxyphenyl)-amine] |
| 100 to 500 | 150 to 152 |  | COc1ccc(S(=O)(=O)c2cnc(C)nc2Cc2c(C)cc(C)cc2C)cc1 [Example 13, 5-(4-Methoxyoxybenzenesulfonyl)-2-methyl-4-(2,4,6-trimethylbenzyl)-pyrimidine] |
| ≤ 100 | 166 to 168 |  | Cc1cc(C)c(Cc2nc(C)ncc2S(=O)(=O)c2ccc(OCc3ccccc3)cc2)c(C)c1 [Example 14, 5-(4-Benzyloxybenzenesulfonyl)-2-methyl-4-(2,4,6-trimethylbenzyl)-pyrimidine] |
| 100 to 500 | 191 to 193 |  | Cc1cc(C)c(Nc2nc(C)ncc2S(=O)(=O)c2ccc(F)cc2)c(C)c1 [Example 15, [5-(4-Fluorobenzenesulfonyl)-2-methylpyrimidin-4-yl]-(2,4,6-trimethylphenyl)-amine] |
|  | 221 to 223 | d | Cc1cc(C)c(Nc2nc(C)ncc2S(=O)(=O)c2ccc(N3CCOCC3)cc2)c(C)c1 [Example 16, [2-Methyl-5-(4-morpholin-4-yl-benzenesulfonyl)-pyrimidin-4-yl]-(2,4,6-trimethylphenyl)-amine] |
|  |  | d | Cc1cc(C)c(Nc2nc(C)ncc2S(=O)(=O)c2ccc(N3CCN(C)CC3)cc2)c(C)c1 [Example 17, {2-Methyl-5-[4-(4-methylpiperazin-1-yl)-benzenesulfonyl]-pyrimidin-4-yl}-(2,4,6-trimethylphenyl)-amine] |
|  | 230 to 232 | d | Cc1cc(C)c(Nc2nc(C)ncc2S(=O)(=O)c2ccc(-n3ccnc3)cc2)c(C)c1 [Example 18, [5-(4-Imidazol-1-yl-benzenesulfonyl)-2-methylpyrimidin-4-yl]-(2,4,6-trimethylphenyl)-amine] |
|  | 196 to 198 | d | Cc1cc(C)c(Nc2nc(C)ncc2S(=O)(=O)c2ccc(N3CCCC3)cc2)c(C)c1 [Example 19, [2-Methyl-5-(4-pyrrolidin-1-yl-benzenesulfonyl)-pyrimidin-4-yl]-(2,4,6-trimethylphenyl)-amine] |
| 100 to 500 | 200 to 202 |  | Cc1cc(C)c(Nc2nc(C)ncc2S(=O)(=O)c2ccc(NCc3ccccc3)cc2)c(C)c1 [Example 20, [5-(4-Benzylaminobenzenesulfonyl)-2-methylpyrimidin-4-yl]-(2,4,6-trimethylphenyl)-amine] |
| ≤ 100 | 146 to 148 |  | Cc1cc(C)c(Nc2nc(C)ncc2S(=O)(=O)c2ccc(N(C)Cc3ccccc3)cc2)c(C)c1 [Example 21, {5-[4-(Benzylmethylamino)-benzenesulfonyl]-2-methylpyrimidin-4-yl}-(2,4,6-trimethylphenyl)-amine] |
| 500 to 5000 | 258 to 260 |  | Cc1cc(C)c(Nc2nc(C)ncc2S(=O)(=O)c2ccc(C#N)cc2)c(C)c1 [Example 22, 4-[2-Methyl-4-(2,4,6-trimethylphenylamino)-pyrimidine-5-sulfonyl]-benzonitrile] |
| 100 to 500 | 202 to 204 |  | Cc1ccc(S(=O)(=O)c2cnc(C)nc2Nc2c(C)cc(C)cc2C)cc1 [Example 23, [2-Methyl-5-(toluene-4-sulfonyl)-pyrimidin-4-yl]-(2,4,6-trimethylphenyl)-amine] |
